From US20070060646A1, “Acylhydrazone derivatives and the use thereof in the inhibition, regulation and/or modulation of kinase signal transduction” (priority 2003, published 2007)

SMILES | melting point
COc1cccc(CC(=O)N/N=C/c2ccc(O)cc2OC)c1 [compound 4] | 166 to 167 °C
O=C(Cc1ccccc1)N/N=C/c1ccc(O)c(F)c1 [compound 5] | 207 °C
COc1cc(O)ccc1/C=N/NC(=O)Cc1ccc(O)cc1 [compound 6] | 224 °C
COc1cc(O)ccc1/C=N/NC(=O)Cc1ccc(Cl)c(Cl)c1 [compound 7] | 232 to 233 °C
COc1cc(O)ccc1/C=N/NC(=O)Cc1cccc(C)c1 [compound 8] | 207 to 208 °C
COc1cc(O)ccc1/C=N/NC(=O)Cc1ccccc1C [compound 9] | 119 to 120 °C
COc1cc(O)ccc1/C=N/NC(=O)Cc1ccccc1Cl [compound 10] | 134 to 135 °C
COc1cc(O)ccc1/C=N/NC(=O)Cc1cccc(Cl)c1 [compound 11] | 121 to 122 °C
COc1cc(O)ccc1/C=N/NC(=O)Cc1ccc(F)cc1 [compound 12] | 184 to 185 °C
COc1cc(O)ccc1/C=N/NC(=O)Cc1ccc(F)cc1Cl [compound 13] | 242 to 243 °C
COc1cc(O)ccc1/C=N/NC(=O)Cc1cccc(F)c1 [compound 14] | 111 to 112 °C
COc1cccc(CC(=O)N/N=C/c2ccc(O)cc2)c1 [compound 15] | 162 to 163 °C
COc1cccc(CC(=O)N/N=C/c2c(C)cc(O)cc2C)c1 [compound 16] | 172 to 173 °C
COc1cccc(CC(=O)N/N=C/c2ccc(O)c(F)c2)c1 [compound 17] | 190 to 191 °C
COc1cccc(CC(=O)N/N=C(\C)c2ccc(O)cc2OC)c1 [compound 18] | 160 to 162 °C
COc1cc(O)ccc1/C=N/NC(=O)Cc1cc(O)cc(O)c1 [compound 19] | 246 °C (dec.)
O=C(Cc1cccc(F)c1)N/N=C/c1ccc(O)c(F)c1 [compound 20] | 193 to 194 °C

SMILES | melting point
COc1cccc(CC(=O)N/N=C/c2ccc(OC(C)=O)cc2OC)c1 [compound 21] | 147 to 148 °C
COc1cc(O)ccc1/C=N/NC(=O)Cc1cccc(C(F)(F)F)c1 [compound 22] | 203 to 204 °C
COc1cccc(CCC(=O)N/N=C/c2ccc(O)cc2OC)c1 [compound 23] | 159 to 160 °C
COc1cccc(CC(=O)N/N=C/c2ccc(O)cc2O)c1 [compound 24] | 205 to 206 °C
COc1cccc(OCC(=O)N/N=C/c2ccc(O)cc2OC)c1 [compound 25] | 173 to 174 °C
COc1cc(O)ccc1/C=N/NC(=O)Cc1cccc([N+](=O)[O-])c1 [compound 26] | 240 to 241 °C
COc1cccc(CC(=O)N/N=C/c2cc(Cl)ccc2O)c1 [compound 28] | 178 to 179 °C
COc1cccc(CC(=O)N/N=C/c2cc([N+](=O)[O-])ccc2O)c1 [compound 29] | 198 to 199 °C
COc1cc(O)ccc1/C=N/NC(=O)C(O)c1ccccc1 (stereo not shown) [compound 30] | 217 to 218 °C
COc1cc(O)ccc1/C=N/NC(=O)Cc1cccc(Br)c1 [compound 33] | 214 to 215 °C
COc1cccc(CC(=O)N/N=C(\C)c2ccc(O)cc2)c1 [compound 34] | 162 to 164 °C
COc1cc(O)ccc1/C=N/NC(=O)Cc1cccc(OS(C)(=O)=O)c1 [compound 35] | 132 °C
COc1cc(O)ccc1/C=N/NC(=O)Cc1cc(F)cc(F)c1 [compound 36] | 224 to 225 °C
Cc1cc(O)ccc1/C=N/NC(=O)Cc1cccc(O)c1 [compound 37] | 203 to 204 °C
CCOc1cc(O)ccc1/C=N/NC(=O)Cc1cccc(O)c1 [compound 38] | 190 to 192 °C
COc1cc(O)cc(C)c1/C=N/NC(=O)Cc1cccc(O)c1 [compound 40] | 194 to 195 °C
COc1cc(O)ccc1/C=N/NC(=O)Cc1ccccc1F [compound 41] | 213 to 215 °C
